{
  "source": "ChEMBL document CHEMBL5136971",
  "about": "“Virtual screening and in vitro validation identifies the first reported inhibitors of Salmonella enterica HPPK” (RSC Med Chem, 2021)",
  "key": {"Salmonella enterica": {"system": "Salmonella enterica", "test": "Inhibition of Salmonella enterica HPPK at 50 uM incubated for 20 mins in presence of ATP by Kinase Glo luminescence assay"}, "Escherichia coli": {"system": "Escherichia coli", "test": "Inhibition of Escherichia coli HPPK at 50 uM incubated for 20 mins in presence of ATP by Kinase Glo luminescence assay"}, "[1]": {"test": "Binding affinity to Escherichia coli HPPK"}, "[2]": {"test": "Inhibition of Escherichia coli HPPK"}, "[3]": {"test": "Inhibition of Salmonella enterica HPPK incubated for 20 mins in presence of ATP by Kinase Glo luminescence assay"}, "[4]": {"test": "Inhibition of Salmonella enterica HPPK"}, "[5]": {"test": "Binding affinity to Salmonella enterica HPPK"}},
  "note": "Activity calls are given as the source filed them. No cut-off for these calls is given here.",
  "data": [
    {"smiles": "Cc1cccc(NC(=O)CN2C(=O)N/C(=C\\c3cccn3-c3ccccc3)C2=O)c1", "values": [
      {"measurement": "inhibition activity call (active/inactive)", "setting": "Salmonella enterica", "result": "Active"}
    ]},
    {"smiles": "Cc1ccc2c(C)c(C(=O)NCc3ccc(S(N)(=O)=O)cc3)oc2c1", "values": [
      {"measurement": "inhibition", "setting": "Escherichia coli", "result": "Active"},
      {"measurement": "inhibition activity call (active/inactive)", "setting": "Salmonella enterica", "result": "Active"}
    ]},
    {"smiles": "CCOC(=O)N1CCN(S(=O)(=O)c2ccc3c4c(cccc24)C(=O)N3)CC1", "values": [
      {"measurement": "inhibition activity call (active/inactive)", "setting": "Salmonella enterica", "result": "Active"}
    ]},
    {"smiles": "CC1(C)Nc2nc(N)[nH]c(=O)c2N=C1C(=O)NCCN1CCC(SC[C@H]2O[C@@H](n3cnc4c(N)ncnc43)[C@H](O)[C@@H]2O)CC1", "values": [
      {"measurement": "Kd", "setting": "[1]", "result": 2500, "unit": "nM"},
      {"measurement": "IC50", "setting": "[2]", "result": 3200, "unit": "nM"}
    ]},
    {"smiles": "O=C(NCc1n[nH]c(=O)c2ccccc12)c1cccc(Cl)c1", "values": [
      {"measurement": "IC50", "setting": "[3]", "result": 10400, "unit": "nM"},
      {"measurement": "inhibition activity call (active/inactive)", "setting": "Salmonella enterica", "result": "Active"}
    ]},
    {"smiles": "O=C(c1ccccc1F)N1CCN(c2ccc([N+](=O)[O-])c3ncccc23)CC1", "values": [
      {"measurement": "inhibition activity call (active/inactive)", "setting": "Salmonella enterica", "result": "Active"}
    ]},
    {"smiles": "Nc1nc2[nH]c(SCc3ccccc3F)nc2c(=O)[nH]1", "values": [
      {"measurement": "IC50", "setting": "[4]", "result": 25000, "unit": "nM"},
      {"measurement": "Kd", "setting": "[5]", "result": 450, "unit": "nM"}
    ]},
    {"smiles": "O=C1CC(C(=O)Nc2cccc3ccccc23)C2(CCCCC2)O1", "note": "(stereo not given)", "values": [
      {"measurement": "inhibition", "setting": "Escherichia coli", "result": "Active"},
      {"measurement": "inhibition activity call (active/inactive)", "setting": "Salmonella enterica", "result": "Active"}
    ]},
    {"smiles": "CC1(C)Nc2nc(N)[nH]c(=O)c2N=C1C(=O)NCCN1CC[C@@H](SC[C@H]2O[C@@H](n3cnc4c(N)ncnc43)[C@H](O)[C@@H]2O)C[C@@H]1C(=O)O", "values": [
      {"measurement": "Kd", "setting": "[1]", "result": 190, "unit": "nM"},
      {"measurement": "IC50", "setting": "[2]", "result": 380, "unit": "nM"}
    ]}
  ]
}
